Assay results as given in ChEMBL document CHEMBL1201862, “PubChem BioAssay data set” (2004).
Values belong to the molecule of their own block, whether it stands above or below them. Active and inactive are the calls of the source.

Legend:
Type in all cases: functional
[1] = target: DNA (cytosine-5)-methyltransferase 1 (Homo sapiens, UniProt P26358); assay: DNMT1 methyltransferase inhibitors, confirmation, biochemical, fluorescent molecular beacon (AID 602386)
[2] = target: T1, Low molecular weight phosphotyrosine protein phosphatase (Homo sapiens, UniProt P24666); settings: read-out: IC50_Mean
[3] = target: T1, Low molecular weight phosphotyrosine protein phosphatase; settings: read-out: IC50_Mean; remark: listed apart in the source
[4] = intracellular Trypanosoma cruzi inhibitors in host cells – cell-based, plate reader, cherry-pick samples, set 3, dose response (AID 651818);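 further: compounds incubated with infected cells for about four days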
[5] = NIH/3T3 fibroblast cytotoxicity, dose response, cytotoxicity control for T. cruzi growth inhibitor project, cell-based, cherry-pick samples, set 2 (AID 651817); settings: NIH3T3
[6] = LMP1-driven NF-kB reporter inhibition, dose response, cell-based, luciferase reporter, luminescence, dry powder, set 2 (AID 624376)
[7] = HEK293 cell viability, dose response, counter-screen for EBV LMP1 inhibitor project, dry powder, set 2 (AID 624374)
[8] = target: Arf-GAP with SH3 domain, ANK repeat and PH domain-containing protein 1 (Homo sapiens, UniProt Q9ULH1);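 further: biochemical fluorescence polarization dose–response screen measuring inhibition of ASAP1; ASAP1 GAP domain stimulating GTP hydrolysis by truncated human ARF1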
Sequence of Arf-GAP with SH3 domain, ANK repeat and PH domain-containing protein 1 (Q9ULH1 whole entry, the tested form may be a part): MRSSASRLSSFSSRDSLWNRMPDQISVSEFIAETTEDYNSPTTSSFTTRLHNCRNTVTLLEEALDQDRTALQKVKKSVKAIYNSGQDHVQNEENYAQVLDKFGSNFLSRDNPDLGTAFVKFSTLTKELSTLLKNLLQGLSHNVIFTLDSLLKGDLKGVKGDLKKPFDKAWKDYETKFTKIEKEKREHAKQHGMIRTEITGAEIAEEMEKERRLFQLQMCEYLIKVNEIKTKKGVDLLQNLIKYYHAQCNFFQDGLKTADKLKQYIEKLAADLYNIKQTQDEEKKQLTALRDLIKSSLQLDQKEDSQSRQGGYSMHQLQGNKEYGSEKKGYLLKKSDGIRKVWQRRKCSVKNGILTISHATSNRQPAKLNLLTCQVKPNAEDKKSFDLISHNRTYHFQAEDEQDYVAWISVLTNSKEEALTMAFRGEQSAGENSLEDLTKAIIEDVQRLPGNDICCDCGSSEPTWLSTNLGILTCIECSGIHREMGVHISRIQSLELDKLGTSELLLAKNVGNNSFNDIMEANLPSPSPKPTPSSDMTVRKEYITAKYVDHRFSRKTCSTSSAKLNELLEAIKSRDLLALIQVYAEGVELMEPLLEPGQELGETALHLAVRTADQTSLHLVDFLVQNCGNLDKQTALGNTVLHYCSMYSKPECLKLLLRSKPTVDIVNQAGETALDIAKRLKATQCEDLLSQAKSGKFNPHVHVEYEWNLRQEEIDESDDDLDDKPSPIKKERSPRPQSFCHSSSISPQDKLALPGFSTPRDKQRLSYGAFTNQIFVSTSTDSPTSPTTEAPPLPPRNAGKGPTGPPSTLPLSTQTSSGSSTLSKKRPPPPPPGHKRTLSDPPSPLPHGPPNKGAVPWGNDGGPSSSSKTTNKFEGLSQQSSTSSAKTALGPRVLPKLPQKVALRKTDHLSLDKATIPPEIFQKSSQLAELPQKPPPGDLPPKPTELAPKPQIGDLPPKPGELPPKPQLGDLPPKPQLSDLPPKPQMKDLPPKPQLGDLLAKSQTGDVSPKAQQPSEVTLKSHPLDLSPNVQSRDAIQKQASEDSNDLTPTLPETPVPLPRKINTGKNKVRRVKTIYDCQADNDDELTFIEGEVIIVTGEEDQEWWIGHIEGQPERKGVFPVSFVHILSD

T1 sequence (P24666 whole entry): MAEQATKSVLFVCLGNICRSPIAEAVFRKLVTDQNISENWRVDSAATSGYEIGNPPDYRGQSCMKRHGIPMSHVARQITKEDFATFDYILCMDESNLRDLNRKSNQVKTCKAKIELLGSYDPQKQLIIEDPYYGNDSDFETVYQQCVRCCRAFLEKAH
Sequence of DNA (cytosine-5)-methyltransferase 1 (P26358 whole entry): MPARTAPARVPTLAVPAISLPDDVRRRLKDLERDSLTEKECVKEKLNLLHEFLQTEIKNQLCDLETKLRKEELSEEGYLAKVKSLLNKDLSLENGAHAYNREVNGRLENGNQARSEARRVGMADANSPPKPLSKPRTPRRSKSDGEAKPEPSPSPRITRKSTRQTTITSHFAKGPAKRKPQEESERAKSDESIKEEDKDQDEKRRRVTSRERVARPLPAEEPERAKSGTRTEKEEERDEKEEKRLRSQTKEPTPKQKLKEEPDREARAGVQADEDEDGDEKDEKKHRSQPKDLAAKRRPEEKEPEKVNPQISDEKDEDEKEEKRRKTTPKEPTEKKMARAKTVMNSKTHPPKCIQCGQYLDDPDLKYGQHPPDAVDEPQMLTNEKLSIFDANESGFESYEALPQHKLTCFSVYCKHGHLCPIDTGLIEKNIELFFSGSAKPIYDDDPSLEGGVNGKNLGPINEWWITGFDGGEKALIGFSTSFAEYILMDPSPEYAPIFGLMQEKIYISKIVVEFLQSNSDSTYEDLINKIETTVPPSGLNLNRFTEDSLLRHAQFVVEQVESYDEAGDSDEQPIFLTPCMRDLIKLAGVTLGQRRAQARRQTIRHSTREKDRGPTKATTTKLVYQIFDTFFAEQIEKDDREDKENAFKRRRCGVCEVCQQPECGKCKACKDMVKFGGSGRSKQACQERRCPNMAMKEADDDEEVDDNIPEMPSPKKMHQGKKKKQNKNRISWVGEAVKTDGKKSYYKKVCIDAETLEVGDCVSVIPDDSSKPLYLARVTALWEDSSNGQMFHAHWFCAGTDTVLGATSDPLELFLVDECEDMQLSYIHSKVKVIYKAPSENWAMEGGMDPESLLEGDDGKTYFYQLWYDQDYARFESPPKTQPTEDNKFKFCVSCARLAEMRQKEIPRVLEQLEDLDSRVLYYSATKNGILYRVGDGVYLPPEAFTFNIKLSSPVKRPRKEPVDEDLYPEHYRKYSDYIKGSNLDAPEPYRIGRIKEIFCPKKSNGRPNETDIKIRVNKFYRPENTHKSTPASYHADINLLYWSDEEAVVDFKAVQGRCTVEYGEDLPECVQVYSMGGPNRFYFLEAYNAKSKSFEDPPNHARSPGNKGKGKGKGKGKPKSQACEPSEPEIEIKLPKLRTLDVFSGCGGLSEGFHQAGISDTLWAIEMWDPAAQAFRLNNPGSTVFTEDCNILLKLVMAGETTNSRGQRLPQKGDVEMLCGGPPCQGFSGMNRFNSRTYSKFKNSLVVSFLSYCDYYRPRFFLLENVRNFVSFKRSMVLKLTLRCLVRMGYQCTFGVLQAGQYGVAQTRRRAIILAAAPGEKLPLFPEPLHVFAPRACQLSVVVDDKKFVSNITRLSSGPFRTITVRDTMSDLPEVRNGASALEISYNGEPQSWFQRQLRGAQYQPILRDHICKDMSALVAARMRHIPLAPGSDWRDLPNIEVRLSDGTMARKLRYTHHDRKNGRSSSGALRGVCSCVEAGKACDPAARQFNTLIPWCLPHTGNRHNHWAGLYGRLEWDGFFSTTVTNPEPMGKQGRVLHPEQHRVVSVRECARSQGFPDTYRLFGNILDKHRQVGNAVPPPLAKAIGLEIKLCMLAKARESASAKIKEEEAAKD

IC50 [1]: 4.93 µM (active)
IC50 [2]: 10.4 µM (active)
IC50 [3]: > 80 µM (inactive)
SMILES: Cc1ccc(-c2nn(-c3ccccc3)cc2C=C2SC(=S)N(CCS(=O)(=O)O)C2=O)cc1

SMILES: Cc1ccc(S(=O)(=O)Nc2ccc3c(c2)CC(=O)N([C@@H](C)CO)C[C@H](C)[C@@H](CN(C)Cc2ccc(Cl)c(Cl)c2)O3)cc1
AC50 [4]: 3.89 µM (active)
AC50 [5]: 8.45 µM (active)

SMILES: O=C(Cc1ccccn1)NCC[C@@H]1CC[C@H](NC(=O)Nc2ccc(Cl)cc2)[C@@H](CO)O1
AbsAC35 [6]: 74.18 µM
AbsAC35 [7]: 102.52 µM

IC50 [8]: 22.5 µM (inactive)
SMILES: O=[N+]([O-])c1ccc(OCCOc2ccccc2/C=N/n2cnnc2)cc1
